Broadly, the inhibition is how much of the control response was suppressed.

SMILES strings stand for the structures.

Holding throughout (type): cell-based
The test system of experiment [1] is HN9 (human squamous cell carcinoma of the oral tongue). In words: growth inhibition of HN9 cancer cell line. Conditions: read-out: growth inhibition percentage.
Experiment [2] has as its system normal oral epithelial cell line (OEC). In words: growth inhibition of OEC non-cancer cell line. Conditions: read-out: growth inhibition percentage.
Experiment [3] concerns HCT116 (colorectal carcinoma). In words: growth inhibition of HCT116 cancer cell line. Conditions: Homo sapiens, HCT-116, read-out: growth inhibition percentage.
Experiment [4] relates to A549 (non-small cell lung cancer). In words: growth inhibition of A549 cancer cell line. To be noted: Homo sapiens, A549, read-out: growth inhibition percentage.
For experiment [5], the system named is A375 (melanoma cancer). In words: growth inhibition of A375 cancer cell line. Conditions: Homo sapiens, A-375, read-out: growth inhibition percentage.
The subject of experiment [6] is HuH7 (hepatocellular carcinoma). In words: growth inhibition of HuH7 cancer cell line. To be noted: Homo sapiens, Huh-7, read-out: growth inhibition percentage.
Experiment [7] concerns HEPG2 (hepatocellular carcinoma). Nature of the experiment: growth inhibition of HEPG2 cancer cell line. Conditions: Homo sapiens, HepG2, read-out: growth inhibition percentage.

In the case of `C[Se]c1ccc(NC(=O)NCC2(C)CC(NC(=O)Nc3ccc([Se]C)cc3)CC(C)(C)C2)cc1` (stereo not shown) [HB188, 1-(4-(methylselanyl)phenyl)-3-((1,3,3-trimethyl-5-(3-(4-(methylselanyl)phenyl)ureido)cyclohexyl)methyl)urea], the inhibition at 100 µg/mL in experiment [1] turned out to be 74%; in experiment [2] it was 32.7%; in experiment [3], 85.3%; in experiment [4] it was 74.4%; in experiment [5], 66.8%; in experiment [6] it was 88.6%. Also, the inhibition at 100 µg/mL in experiment [7] came to 76.2%.

The values are drawn from patent publication US12478595B1, “Organoselenium compound for treating cancer” (IMAM MOHAMMAD IBN SAUD ISLAMIC UNIVERSITY, priority 2024, dated 2025).
